Results on two compounds are retold here after patent US20250281424A1 (New York Blood Center, Inc, priority 2020, published 2025).

Structures are written as SMILES. Read-outs that look alike come from different tables or passages of the source.

The target in one series is T1, human PF4 (Homo sapiens, UniProt P02776).
T1 construct: PF4 is a 70 amino acid, lysine-rich 7.8 kDa platelet-specific protein; made in house; host or cells: Escherichia coli BL21DE3 pLysS (pT7-7) and/or Drosophila S2 cells
T1 sequence (P02776 32-101): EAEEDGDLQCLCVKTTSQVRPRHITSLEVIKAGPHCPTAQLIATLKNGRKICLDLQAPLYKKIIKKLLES
Kind of series: Inhibition of PF4 tetramer formation (BS3 cross-linking, SDS-PAGE). It is filed as biochemical. The settings on record: for IC50: read-out: IC50 of PF4 tetramer formation inhibition. A digest of the protocol:
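Monomer, dimer, trimer and tetramer fractions were quantified by densitometry after reducing 12% SDS-PAGE of BS3-cross-linked (0.2 mM, 30 min, room temperature) PF4. Before cross-linking, 10 μg/ml E. coli-expressed human WT PF4 in PBS was exposed to compound for 15 min at 37° C or 60 min at room temperature; controls lacked compound.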

Series [1] concerns the target T2, ultra large complexes (ULC) between PF4 tetramers and heparin (Homo sapiens, UniProt P02776).
T2 construct: platelet factor 4 which is a 70 amino acid, lysine-rich, 7.8 kDa platelet-specific protein
T2 sequence (P02776 32-101): T1 sequence (P02776 32-101)
Kind of series: Inhibition of formation of ultra large complexes (ULC) of PF4 tetramers and heparin. The format is biochemical. The note with it: for IC50: IC50 values are +/−20%. As for the experimental part: Since ULCs are formed as part of a dynamic equilibrium between heparin and PF4, dynamic light scattering (DLS) was performed to measure the ability of the exemplified compounds to disrupt preformed ULCs. Samples were analyzed and included PF4 incubated in the absence or presence of unfractionated heparin (UFH) for 20 min at room temperature at PF4 to heparin ratios (PHR) of 1:0 (no heparin), 2:1, and 0.64:1. The samples were then analyzed using photon correlation spectroscopy on a DynaPro® DLS instrument and Dynamics® software (V6.7.6; […]) to obtain correlation function. The results of the DLS analysis indicate the percentage of ULCs and small PF4 particles. Data for the small particles (a population of particles with a mean hydrodynamic diameter of about 1 nm) and data for the large particles (a population of particles with a mean hydrodynamic diameter of about 300 nm) is assessed. Data are expressed as the percent of total intensity from each measurement, the mean of 10 measurements, and representative of two such experiments.
ELISA measurement and gel filtration measurement of ULC inhibition were performed as described in International Patent Publication No. WO2013/142328, which is incorporated herein by reference. Similarly, assays in which heparin concentrations are varied to determine the effect on ULC inhibition were performed as described in that publication.
Certain compounds were evaluated for their ability to inhibit formation of ultra large complexes (ULC) between PF4 tetramers and heparin.

Series [2] in a line: Human microsome stability. The note with it: for half-life at 0.5 μM / microsomal CLint at 0.5 μM: Human microsomes, compound conc = 0.5 μM, n = 1; for half-life at 0.5 μM: read-out: Human microsome stability Half life t1/2; for microsomal CLint at 0.5 μM: read-out: Human microsome stability Intrinsic Clearance Clint (ml/min/mg protein); for intrinsic clearance in human microsome assay / stability in human microsome assay: human microsomes. The format is in vitro ADME. From the text:
(§1) Certain exemplified compounds were examined for ADMET (absorption, distribution, metabolism, excretion and toxicity) profiling using conventional assays with the results shown in the Tables 3A-3C below.

The target of the next series is P450 2D6 (Homo sapiens, UniProt P10635). Kind of series: P450 inhibition 2D6. The format is in vitro ADME. The protocol: as §1
Chain of P450 2D6 (P10635 whole entry): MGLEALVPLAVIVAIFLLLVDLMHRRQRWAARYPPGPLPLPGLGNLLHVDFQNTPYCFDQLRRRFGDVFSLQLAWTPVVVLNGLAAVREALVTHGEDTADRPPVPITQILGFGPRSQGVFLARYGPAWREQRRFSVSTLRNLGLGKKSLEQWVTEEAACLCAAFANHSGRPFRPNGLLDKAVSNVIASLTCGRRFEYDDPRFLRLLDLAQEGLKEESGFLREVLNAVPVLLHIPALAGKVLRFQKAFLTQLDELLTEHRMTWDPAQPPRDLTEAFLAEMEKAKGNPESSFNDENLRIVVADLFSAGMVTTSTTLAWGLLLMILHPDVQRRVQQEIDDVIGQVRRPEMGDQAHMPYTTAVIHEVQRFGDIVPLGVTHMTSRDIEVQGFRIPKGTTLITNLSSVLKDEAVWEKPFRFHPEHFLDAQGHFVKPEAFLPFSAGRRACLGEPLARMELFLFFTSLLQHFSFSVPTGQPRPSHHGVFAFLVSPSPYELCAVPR
Examples 1 and 3 were evaluated as inhibitors of the five P450s that are the source of most DDI issues. […] The tested compounds meet drug property criteria for IV administration.

A word on the IC50: it is the concentration needed to halve the response being measured. Take `CC(=O)C1C(=O)c2ccc(C(=O)c3ccc4c(c3)C(=O)C(C(C)=O)C4=O)cc2C1=O` (stereo not shown) [Example 1, 5,5′-carbonylbis(2-acetyl-1h-indene-1,3(2h)-dione)]: the IC50 at human PF4 stood at 7 µM. In series [1], this compound registered an IC50 of 8 µM. In series [2], the half-life at 0.5 μM was determined as 1.44 h, the microsomal CLint at 0.5 μM was 15.8 mL/min/mg, the “intrinsic clearance in human microsome assay” value was “low intrinsic clearance” and the “stability in human microsome assay” value was “excellent stability”. Also, at P450 2D6, the IC50 is more than 100 µM and the “inhibition of P450 2D6” value is “no inhibition”.

For `CCOC(=O)C1C(=O)c2ccc(C(=O)c3ccc4c(c3)C(=O)C(C(=O)OCC)C4=O)cc2C1=O` (stereo not shown) [Example 3, diethyl 5,5′-carbonylbis(1,3-dioxo-2,3-dihydro-1h-indene-2-carboxylate)], the inhibition at 100 µM on human PF4 (100 μM inhibitor, read-out: % inhibition of PF4 tetramer formation at single concentration of inhibitor) amounted to 100%. Further, the “inhibition of PF4 tetramerization” value against human PF4 (FIG. 6A) is reported as “dose-dependent inhibition”. Also, the IC50 on human PF4 amounted to 2 µM. In addition, the “inhibition of ULC formation” value in series [1] (FIG. 6B) is given as “dose-dependent inhibition”. This compound registered an IC50 in series [1] of 2 µM. Also, in series [2], the half-life at 0.5 μM was more than 2.42 h, the microsomal CLint at 0.5 μM is less than 9.5 mL/min/mg, the “intrinsic clearance in human microsome assay” value was “low intrinsic clearance” and the “stability in human microsome assay” value is “excellent stability”. Also, on P450 2D6, the “inhibition of P450 2D6” value is “no inhibition”. Further, the IC50 on P450 2D6 (read-out: P450 Inhibition IC50 2D6) is more than 100 µM.
